We go through 16 molecules from patent publication US20260327191A1, “GSK3a INHIBITORS AND METHODS OF USE THEREOF” (Blueprint Medicines Corporation, priority 2023, published 2026).

The IC50 is the concentration that gives 50% inhibition.

Where a name gives a salt, the structure may show the parent alone.

The target in one assay is T1, GSK3A (Homo sapiens, UniProt P49840).
T1 construct: expressed in transfected cells
Put plainly: NanoBRET cellular target engagement assay, Nanoluc-GSK3A in HEK293 cells. As to conditions: NanoBRET GSK3α IC50, HEK293 cells, tracer K-8, 2 hours, 37° C. The assay is classed as cell-based. In general terms: In BRET a luciferase serves as donor, and the signal depends on an acceptor being close.

In assay [1] the target is T2, GSK3B (Homo sapiens, UniProt P49841). Put plainly: In vitro enzymatic activity assay, GSK3β. The arrangement: Full length human GSK3α or GSK3B expressed as N-terminal GST fusion proteins; GST (N); purchased Carna Biosciences (Japan); host or cells: baculovirus host. As to conditions: 1.0 mM ATP, 1.0 μM peptide substrate, 120 min, 25° C, read-out: Enzyme GSK3β (IC50). It is filed as biochemical.
T2 sequence (P49841 whole entry, the tested form may be a part): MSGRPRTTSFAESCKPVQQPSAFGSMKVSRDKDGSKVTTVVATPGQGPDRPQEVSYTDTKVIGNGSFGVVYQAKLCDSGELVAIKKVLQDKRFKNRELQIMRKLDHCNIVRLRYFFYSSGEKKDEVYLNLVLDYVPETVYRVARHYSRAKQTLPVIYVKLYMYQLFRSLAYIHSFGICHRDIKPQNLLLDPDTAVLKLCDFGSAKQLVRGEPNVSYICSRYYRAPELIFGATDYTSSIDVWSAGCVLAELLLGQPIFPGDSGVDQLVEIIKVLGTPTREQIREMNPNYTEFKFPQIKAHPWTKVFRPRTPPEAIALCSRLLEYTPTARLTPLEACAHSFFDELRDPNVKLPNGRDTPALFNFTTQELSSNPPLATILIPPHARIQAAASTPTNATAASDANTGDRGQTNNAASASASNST

The target of assay [2] is T2, GSK3B. Nature of the assay: NanoBRET cellular target engagement assay, Nanoluc-GSK3B in HEK293 cells. It is filed as cell-based. Set-up: expressed in transfected cells. As to conditions: NanoBRET GSK3β IC50, HEK293 cells, tracer K-8, 2 hours, 37° C.
In a further assay the target is T3, human GSK3α (Homo sapiens, UniProt P49840).
T3 construct: Full length human GSK3α or GSK3B expressed as N-terminal GST fusion proteins; GST (N); purchased Carna Biosciences (Japan); host or cells: baculovirus host
T3 sequence (P49840 whole entry, the tested form may be a part): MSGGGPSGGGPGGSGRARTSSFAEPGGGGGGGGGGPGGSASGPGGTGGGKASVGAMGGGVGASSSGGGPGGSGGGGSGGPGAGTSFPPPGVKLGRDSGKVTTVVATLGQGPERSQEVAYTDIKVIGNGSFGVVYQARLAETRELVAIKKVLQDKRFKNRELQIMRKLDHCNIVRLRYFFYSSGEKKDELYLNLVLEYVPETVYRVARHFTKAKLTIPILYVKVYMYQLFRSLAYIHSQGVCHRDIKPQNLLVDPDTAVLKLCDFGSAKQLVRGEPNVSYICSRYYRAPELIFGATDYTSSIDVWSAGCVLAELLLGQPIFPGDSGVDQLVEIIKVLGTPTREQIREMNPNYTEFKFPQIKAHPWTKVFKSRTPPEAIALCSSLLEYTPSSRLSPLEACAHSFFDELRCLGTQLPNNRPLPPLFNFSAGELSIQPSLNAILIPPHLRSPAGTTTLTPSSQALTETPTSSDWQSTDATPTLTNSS
Nature of the assay: In vitro enzymatic activity assay, GSK3α. It is filed as biochemical. As to conditions: 1.0 mM ATP, 1.0 μM peptide substrate, 120 min, 25° C, read-out: Enzyme GSK3α (IC50).

T1 sequence (P49840 whole entry): as the sequence (P49840 whole entry, the tested form may be a part) above

Consider `CN[C@H](C)c1cccc(NC(=O)c2c(N)ncn(-c3c(C)cc(C(F)(F)F)cc3Cl)c2=O)c1` (atropisomer, axis not shown) [Example 33, 4-amino-1-((S)-2-chloro-6-methyl-4-(trifluoromethyl)phenyl)-N-(3-((R)-1-(methylamino)ethyl)phenyl)-6-oxo-1,6-dihydropyrimidine-5-carboxamide], for which the IC50 at GSK3A was 0.0083 µM; on GSK3B [1], 0.343 µM; on GSK3B [2] it was 0.461 µM; at human GSK3α it was 0.0064 µM.

Turning to `CN[C@@H](C)c1cncc(NC(=O)c2c(N)ncn(-c3c(Cl)cc(OC4CC4)cc3Cl)c2=O)c1` (single isomer, unassigned) [Example 195, (S)-4-amino-1-(2,6-dichloro-4-cyclopropoxyphenyl)-N-(5-(1-(methylamino)ethyl)pyridin-3-yl)-6-oxo-1,6-dihydropyrimidine-5-carboxamide or (R)-4-amino-1-(2,6-dichloro-4-cyclopropoxyphenyl)-N-(5-(1-(methylamino)ethyl)pyridin-3-yl)-6-oxo-1,6-dihydropyrimidine-5-carboxamide], the IC50 against GSK3A was 0.0054 µM; at GSK3B [1], 0.632 µM; on GSK3B [2] it was 0.462 µM; at human GSK3α it was 0.011 µM.

For the molecule `Nc1ncn(-c2c(Cl)cc(Cl)cc2Cl)c(=O)c1C(=O)Nc1cncc([C@@H]2CCCCN2)c1` [Example 48, (S)-4-amino-6-oxo-N-(5-(piperidin-2-yl)pyridin-3-yl)-1-(2,4,6-trichlorophenyl)-1,6-dihydropyrimidine-5-carboxamide], the IC50 worked out at 0.0047 µM against GSK3A, 0.343 µM on GSK3B [1], 0.298 µM against GSK3B [2] and 0.0052 µM on human GSK3α.

Take `COCc1cc(C)c(-n2cnc(N)c(C(=O)Nc3cnnc(C(N)=O)c3)c2=O)c(C)c1` [Example 30, 5-(4-amino-1-(4-(methoxymethyl)-2,6-dimethylphenyl)-6-oxo-1,6-dihydropyrimidine-5-carboxamido)pyridazine-3-carboxamide]: the IC50 stood at 0.0722 µM at GSK3A, 1.95 µM at GSK3B [1], 15.8 µM at GSK3B [2] and 0.0639 µM on human GSK3α.

In the case of `CCOc1cc(Cl)c(-n2cnc(N)c(C(=O)Nc3cncc(C(C)N)c3)c2=O)c(Cl)c1` (single isomer, unassigned) [Example 137, (R)-4-amino-N-(5-(1-aminoethyl)pyridin-3-yl)-1-(2,6-dichloro-4-ethoxyphenyl)-6-oxo-1,6-dihydropyrimidine-5-carboxamide or (S)-4-amino-N-(5-(1-aminoethyl)pyridin-3-yl)-1-(2,6-dichloro-4-ethoxyphenyl)-6-oxo-1,6-dihydropyrimidine-5-carboxamide], the IC50 against GSK3A was 0.0017 µM; on GSK3B [1], 0.129 µM; against GSK3B [2], 0.0871 µM; at human GSK3α it was 0.0019 µM.

In the case of `CCNCc1cncc(NC(=O)c2c(N)ncn(-c3c(Cl)cc(C(F)F)cc3Cl)c2=O)c1` [Example 14, 4-amino-1-(2,6-dichloro-4-(difluoromethyl)phenyl)-N-(5-((ethylamino)methyl)pyridin-3-yl)-6-oxo-1,6-dihydropyrimidine-5-carboxamide], the IC50 at GSK3A worked out at 0.004 µM; on GSK3B [1], 0.318 µM; at GSK3B [2], 0.231 µM; at human GSK3α, 0.0064 µM.

In the case of `CCNCc1cncc(NC(=O)c2c(N)ncn(-c3c(Cl)cc(-c4cnco4)cc3Cl)c2=O)c1` [Example 200, 4-amino-1-(2,6-dichloro-4-(oxazol-5-yl)phenyl)-N-(5-((ethylamino)methyl)pyridin-3-yl)-6-oxo-1,6-dihydropyrimidine-5-carboxamide], the IC50 against GSK3A came out at 0.0076 µM; at GSK3B [1], 0.813 µM; on GSK3B [2], 0.451 µM; on human GSK3α, 0.0144 µM.

As for `[2H]C([2H])([2H])NC(C)c1cncc(NC(=O)c2c(N)ncn(-c3c(C)cc(OC)cc3Cl)c2=O)c1` (single isomer, unassigned) [Example 4, (R)-4-amino-1-((S)-2-chloro-4-methoxy-6-methylphenyl)-N-(5-(1-((methyl-d3)amino)ethyl)pyridin-3-yl)-6-oxo-1,6-dihydropyrimidine-5-carboxamide or (S)-4-amino-1-((S)-2-chloro-4-methoxy-6-methylphenyl)-N-(5-(1-((methyl-d3)amino)ethyl)pyridin-3-yl)-6-oxo-1,6-dihydropyrimidine-5-carboxamide], the IC50 was 0.0014 µM against GSK3A, 0.187 µM on GSK3B [1], 0.109 µM against GSK3B [2] and 0.0037 µM at human GSK3α.

Consider `CNC(C)c1cncc(NC(=O)c2c(N)ncn(-c3c(Cl)cc(Cl)cc3Cl)c2=O)c1` (single isomer, unassigned) [Example 12, (R)-4-amino-N-(5-(1-(methylamino)ethyl)pyridin-3-yl)-6-oxo-1-(2,4,6-trichlorophenyl)-1,6-dihydropyrimidine-5-carboxamide or (S)-4-amino-N-(5-(1-(methylamino)ethyl)pyridin-3-yl)-6-oxo-1-(2,4,6-trichlorophenyl)-1,6-dihydropyrimidine-5-carboxamide], for which the IC50 against GSK3A amounted to 0.0024 µM; on GSK3B [1], 0.199 µM; on GSK3B [2], 0.141 µM; at human GSK3α it was 0.0038 µM.

For `CCCOc1cc(C)c(-n2cnc(N)c(C(=O)Nc3cncc(C(C)N)c3)c2=O)c(C)c1` (single isomer, unassigned) [Example 126, (R)-4-amino-N-(5-(1-aminoethyl)pyridin-3-yl)-1-(2,6-dimethyl-4-propoxyphenyl)-6-oxo-1,6-dihydropyrimidine-5-carboxamide or (S)-4-amino-N-(5-(1-aminoethyl)pyridin-3-yl)-1-(2,6-dimethyl-4-propoxyphenyl)-6-oxo-1,6-dihydropyrimidine-5-carboxamide], the IC50 at GSK3A stood at 0.0079 µM; on GSK3B [1], 0.702 µM; at GSK3B [2], 0.506 µM; on human GSK3α it was 0.0147 µM.

In the case of `Nc1ncn(-c2c(Cl)cc(C(F)(F)F)cc2Cl)c(=O)c1C(=O)Nc1cncc(CNCCO)c1` [Example 23, 4-amino-1-(2,6-dichloro-4-(trifluoromethyl)phenyl)-N-(5-(((2-hydroxyethyl)amino)methyl)pyridin-3-yl)-6-oxo-1,6-dihydropyrimidine-5-carboxamide], the IC50 against GSK3A is 0.0043 µM; at GSK3B [1], 0.343 µM; against GSK3B [2] it was 0.239 µM; on human GSK3α, 0.005 µM.

With `CNC(C)c1cncc(NC(=O)c2c(N)ncn(-c3c(Cl)cc(Cl)cc3Cl)c2=O)c1` (single isomer, unassigned) [Example 13, (S)-4-amino-N-(5-(1-(methylamino)ethyl)pyridin-3-yl)-6-oxo-1-(2,4,6-trichlorophenyl)-1,6-dihydropyrimidine-5-carboxamide or (R)-4-amino-N-(5-(1-(methylamino)ethyl)pyridin-3-yl)-6-oxo-1-(2,4,6-trichlorophenyl)-1,6-dihydropyrimidine-5-carboxamide], the 50% inhibitory concentration (IC50) at GSK3A stood at 0.0098 µM; on GSK3B [1] it was 1.01 µM; on GSK3B [2] it was 0.503 µM; on human GSK3α, 0.0177 µM.

In the case of `Cc1cc(C)c(-n2cnc(N)c(C(=O)Nc3cncc(C(C)N)c3)c2=O)c(C)c1` (single isomer, unassigned) [Example 147, (R)-4-amino-N-(5-(1-aminoethyl)pyridin-3-yl)-1-mesityl-6-oxo-1,6-dihydropyrimidine-5-carboxamide or (S)-4-amino-N-(5-(1-aminoethyl)pyridin-3-yl)-1-mesityl-6-oxo-1,6-dihydropyrimidine-5-carboxamide], the IC50 turned out to be 0.0038 µM against GSK3A, 0.392 µM on GSK3B [1], 0.354 µM at GSK3B [2] and 0.0088 µM on human GSK3α.

With `Cc1cc(C(F)CF)cc(C)c1-n1cnc(N)c(C(=O)Nc2cncc(C(C)N)c2)c1=O` (single isomer, unassigned) [Example 114], the IC50 against GSK3A was 0.0044 µM; at GSK3B [1], 0.507 µM; against GSK3B [2], 0.252 µM; on human GSK3α, 0.0121 µM.

On to `Cc1cc(C(F)(F)F)cc(C)c1-n1cnc(N)c(C(=O)Nc2cncc([C@H]3CCCCN3)c2)c1=S` [Example 162, (R)-4-amino-1-(2,6-dimethyl-4-(trifluoromethyl)phenyl)-N-(5-(piperidin-2-yl)pyridin-3-yl)-6-thioxo-1,6-dihydropyrimidine-5-carboxamide trifluoroacetate], for which the IC50 came to 0.0054 µM against GSK3A, 0.218 µM on GSK3B [1], 0.301 µM at GSK3B [2] and 0.0056 µM on human GSK3α.

For `COc1cc(Cl)c(-n2cnc(N)c(C(=O)Nc3cncc([C@]4(N)CCCOC4)c3)c2=O)c(Cl)c1` (single isomer, unassigned) [Example 187, (R)-4-amino-N-(5-(3-aminotetrahydro-2H-pyran-3-yl)pyridin-3-yl)-1-(2,6-dichloro-4-methoxyphenyl)-6-oxo-1,6-dihydropyrimidine-5-carboxamide or (S)-4-amino-N-(5-(3-aminotetrahydro-2H-pyran-3-yl)pyridin-3-yl)-1-(2,6-dichloro-4-methoxyphenyl)-6-oxo-1,6-dihydropyrimidine-5-carboxamide], the IC50 at GSK3A was found to be 0.0056 µM; at GSK3B [1], 0.357 µM; on GSK3B [2] it was 0.421 µM; on human GSK3α, 0.0084 µM.
